Results taken from patent US12365672B2, “Compounds and their use for the treatment of alpha1-antitrypsin deficiency” (CENTESSA PHARMACEUTICALS (UK) LIMITED, priority 2019, dated 2025).

Target: T1, human Z A1AT (Homo sapiens, UniProt P01009, E366K)
T1 construct: expressed in transfected cells; host or cells: HEK-Z cells (human embryonic kidney cell line)
Test: A1AT cell secretion assay using HEK-Z cells (ELISA of supernatant)
Assay type: cell-based
Settings: 48 h, A1AT in supernatant by ELISA
Protocol: HEK-Z cells, a human embryonic kidney cell line stably transfected with the human Z A1AT gene, were plated into 96 well plates (3.0×10^5 cells/ml with 200 μl of media/well) overnight at 37° C. in a humidified atmosphere containing 5% CO2. Following incubation cells were washed with 200 μl serum-free media three times and media was replaced with treatments in quadruplicate using serum free media containing either vehicle, 10 μM suberanilohydroxamic acid (SAHA) or a compound of the invention (at concentrations of 10, 33, 100 and 333 nM) for 48 h in a 37° C. incubator in a final volume of 200 μl. At the end of the incubation step the supernatants were removed from the wells, centrifuged at 1000×g at 4° C. for 10 min and were assayed for human A1AT levels by ELISA (Human Serpin A1/α1-antitrypsin duo set ELISA, R& D Systems, DY1268) per manufacturer's instructions.
Briefly, a 96 well plate was coated with human A1AT capture antibody overnight at room temperature (1:180 dilution from stock, 100 μl final volume/well). The capture antibody was then removed and wells washed three times with 300 μl wash buffer (0.05% Tween 20 in PBS) and then 200 μl reagent diluent ([…]) was incubated in each well for 1 h at room temperature. Diluted samples, standards (125, 250, 500, 1000, 2000, 4000 and 8000 pg/ml A1AT) or blanks were then added to each well in duplicate and the plates were covered with a plate sealer and left at room temperature for 2 h. At the end of the sample incubation step, samples were removed and all wells washed as previously and 100 μl detection antibody (1:180 dilution from stock) was added to each well and incubated for a further 2 h at room temperature. […] After which, 50 μl stop solution (2M H2SO4) was added and optical density (OD) of each well was read at 450 nm with 570 nm blank subtracted from each well using a microplate reader. A 4 parameter logistic curve was constructed using GraphPad Prism 7 and A1AT concentrations were determined in each sample by interpolation from a standard curve and multiplying by the appropriate dilution factor.

T1 sequence (P01009 25-418 E366K): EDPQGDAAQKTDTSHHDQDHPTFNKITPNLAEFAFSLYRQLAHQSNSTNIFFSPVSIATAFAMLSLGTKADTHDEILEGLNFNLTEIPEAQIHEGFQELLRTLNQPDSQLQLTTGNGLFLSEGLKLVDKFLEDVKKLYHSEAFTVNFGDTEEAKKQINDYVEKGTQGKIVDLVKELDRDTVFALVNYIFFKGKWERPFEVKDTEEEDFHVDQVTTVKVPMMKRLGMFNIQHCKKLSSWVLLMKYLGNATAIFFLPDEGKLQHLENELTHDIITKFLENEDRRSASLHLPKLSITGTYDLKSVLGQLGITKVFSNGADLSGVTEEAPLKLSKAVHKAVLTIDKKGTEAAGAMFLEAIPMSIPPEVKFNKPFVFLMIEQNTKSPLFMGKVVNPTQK

Compound | Median A1AT % increase over vehicle at 300 nM [%]
O=c1c2ccccc2ncn1Cc1ccc(-c2ncco2)cc1 [Example 2, 3-(4-(oxazol-2-yl)benzyl)quinazolin-4(3H)-one] | 140
O=c1ccncn1Cc1ccc(-c2ncco2)cc1 [Example 1, 3-(4-(oxazol-2-yl)benzyl)pyrimidin-4(3H)-one] | 180
O=c1cc[nH]c(=O)n1Cc1ccc(-c2ncco2)cc1 [Example 3, 3-(4-(oxazol-2-yl)benzyl)pyrimidine-2,4(1H,3H)-dione] | 180
